# Test results reported in US20230117324A1, “OXAZINE MONOACYLGLYCEROL LIPASE (MAGL) INHIBITORS” (Hoffmann-La Roche Inc., priority 2018, published 2023).
# pIC50: −log10 of the molar value.
# Target: T1, MAGL (Homo sapiens, UniProt Q99685)
# T1 sequence (Q99685 1-303): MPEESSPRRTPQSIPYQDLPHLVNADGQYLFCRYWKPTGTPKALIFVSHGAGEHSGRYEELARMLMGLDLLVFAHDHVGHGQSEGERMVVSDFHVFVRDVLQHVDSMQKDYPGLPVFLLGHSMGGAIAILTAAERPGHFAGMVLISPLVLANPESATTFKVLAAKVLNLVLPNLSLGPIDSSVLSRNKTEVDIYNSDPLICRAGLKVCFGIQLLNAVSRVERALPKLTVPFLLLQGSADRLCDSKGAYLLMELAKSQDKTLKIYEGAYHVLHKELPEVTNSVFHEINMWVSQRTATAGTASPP
# Assay: MAGL inhibition, 2-AG assay (hydrolysis of 2-arachidonoylglycerol, arachidonic acid by mass spectrometry)
# Assay type: biochemical
# Conditions: 2-AG assay (footnote [b])
# Description: Alternatively, compounds were profiled for MAGL inhibitory activity by determining the enzymatic activity by following the hydrolysis of the natural substrate 2-arachidonoylglycerol (2-AG) resulting in arachidonic acid, which can be followed by mass spectrometry. This assay is hereinafter abbreviated “2-AG assay”.
# The 2-AG assay was carried out in 384 well assay plates (PP, Greiner Cat #784201) in a total volume of 20 μL. Compound dilutions were made in 100% DMSO (VWR Chemicals 23500.297) in a polypropylene plate in 3-fold dilution steps to give a final concentration range in the assay from 12.5 μM to […]. 0.25 μL compound dilutions (100% DMSO) were added to 9 μL MAGL in assay buffer (50 mM TRIS (GIBCO, 15567-027), 1 mM EDTA (Fluka, 03690-100 mL), 0.01% (v/v) Tween. After shaking, the plate was incubated for 15 min at RT. To start the reaction, 10 μL 2-arachidonoylglycerol in assay buffer was added. The final concentrations in the assay was […] and 8 μM 2-arachidonoylglyerol. After shaking and 30 min incubation at RT, the reaction was quenched by the addition of 40 μL of ACN containing 4 μM of d8-arachidonic acid. The amount of arachidonic acid was traced by an online SPE system (Agilent Rapidfire) coupled to a triple quadrupole mass spectrometer (Agilent 6460). A C18 SPE cartridge (G9205A) was used in an ACN/water liquid setup. The mass spectrometer was operated in negative electrospray mode following the mass transitions 303.1→259.1 for arachidonic acid and 311.1→267.0 for d8-arachidonic acid. The activity of the compounds was calculated based on the ratio of intensities [arachidonic acid/d8-arachidonic acid].
row,SMILES,pIC50
1,"CC1CN(C(=O)N2CC[C@@H]3OCC(=O)N[C@@H]3C2)CCC1c1ccc(C(C)(F)F)cn1 (single isomer, unassigned) [Example 43, (4aR,8aS)-6-((3R or 3S)-4-(5-(1,1-Difluoroethyl)pyridin-2-yl)-3-methylpiperidine-1-carbonyl)hexahydro-2H-pyrido[4,3-b][1,4]oxazin-3(4H)-one]",6.81
2,"CC1CN(C(=O)N2CC[C@@H]3OCC(=O)N[C@@H]3C2)CCC1c1ccc(C(C)(F)F)cn1 (single isomer, unassigned) [Example 44, (4aR,8aS)-6-((3S or 3R)-4-(5-(1,1-Difluoroethyl)pyridin-2-yl)-3-methylpiperidine-1-carbonyl)hexahydro-2H-pyrido[4,3-b][1,4]oxazin-3(4H)-one]",6.42
3,"CC1CN(C(=O)N2CC[C@@H]3OCC(=O)N[C@@H]3C2)CC[C@@H]1c1ccc(C(C)(F)F)cn1 (single isomer, unassigned) [Example 45, (4aR,8aS)-6-((4R or 4S)-(5-(1,1-Difluoroethyl)pyridin-2-yl)-3-methylpiperidine-1-carbonyl)hexahydro-2H-pyrido[4,3-b][1,4]oxazin-3(4H)-one]",5.48
4,"CC(c1ccc(C(F)(F)F)cc1)C1CCN(C(=O)N2CC[C@@H]3OCC(=O)N[C@@H]3C2)CC1 (single isomer, unassigned) [Example 47, (4aR,8aS)-6-(4-((S or R)-1-(4-(Trifluoromethyl)phenyl)ethyl)piperidine-1-carbonyl)hexahydro-2H-pyrido[4,3-b][1,4]oxazin-3(4H)-one]",6.29
5,"O=C1CO[C@H]2CCN(C(=O)N3CCC(C(OCC(F)(F)F)c4ccc(F)cc4)CC3)C[C@H]2N1 (single isomer, unassigned) [Example 57, (4aR,8aS)-6-(4-((R or S)-(4-Fluorophenyl)(2,2,2-trifluoroethoxy)methyl)piperidine-1-carbonyl)hexahydro-2H-pyrido[4,3-b][1,4]oxazin-3(4H)-one]",7.54
6,"O=C1CO[C@H]2CCN(C(=O)N3CCC(C(OCC(F)(F)F)c4ccc(F)cc4)CC3)C[C@H]2N1 (single isomer, unassigned) [Example 58, (4aR,8aS)-6-(4-((S or R)-(4-Fluorophenyl)(2,2,2-trifluoroethoxy)methyl)piperidine-1-carbonyl)hexahydro-2H-pyrido[4,3-b][1,4]oxazin-3(4H)-one]",8.15
7,"Cc1noc(CC(c2ccc(F)cc2)C2CCN(C(=O)N3CC[C@@H]4OCC(=O)N[C@@H]4C3)CC2)n1 (single isomer, unassigned) [Example 59, (4aR,8aS)-6-(4-((R or S)-1-(4-Fluorophenyl)-2-(3-methyl-1,2,4-oxadiazol-5-yl)ethyl)piperidine-1-carbonyl)hexahydro-2H-pyrido[4,3-b][1,4]oxazin-3(4H)-one]",7.22
8,"Cc1noc(CC(c2ccc(F)cc2)C2CCN(C(=O)N3CC[C@@H]4OCC(=O)N[C@@H]4C3)CC2)n1 (single isomer, unassigned) [Example 60, (4aR,8aS)-6-(4-((S or R)-1-(4-Fluorophenyl)-2-(3-methyl-1,2,4-oxadiazol-5-yl)ethyl)piperidine-1-carbonyl)hexahydro-2H-pyrido[4,3-b][1,4]oxazin-3(4H)-one]",7.17

# Compounds with a higher pIC50, results first:
row,pIC50,SMILES
1,8.40,"O=C1CO[C@H]2CCN(C(=O)N3CCC(C(c4ccccc4)c4ccc(OCCF)cc4)CC3)C[C@H]2N1 (single isomer, unassigned) [Example 70, (4aR,8aS)-6-[4-[(R or S)-[4-(2-Fluoroethoxy)phenyl]-phenylmethyl]piperidine-1-carbonyl]-4,4a,5,7,8,8a-hexahydropyrido[4,3-b][1,4]oxazin-3-one]"
2,8.52,"CC(c1ccc(C(F)(F)F)cc1)C1CCN(C(=O)N2CC[C@@H]3OCC(=O)N[C@@H]3C2)CC1 (single isomer, unassigned) [Example 46, (4aR,8aS)-6-(4-((R or S)-1-(4-(Trifluoromethyl)phenyl)ethyl)piperidine-1-carbonyl)hexahydro-2H-pyrido[4,3-b][1,4]oxazin-3(4H)-one]"
3,9.40,"COc1cccc(C(c2ccc(F)cc2)C2CCN(C(=O)N3CC[C@@H]4OCC(=O)N[C@@H]4C3)CC2)c1 (single isomer, unassigned) [Example 62, (4aR,8aS)-6-[4-[(S or R)-(4-Fluorophenyl)-(3-methoxyphenyl)methyl]piperidine-1-carbonyl]-4,4a,5,7,8,8a-hexahydropyrido[4,3-b][1,4]oxazin-3-one]"
4,9.40,"O=C1CO[C@H]2CCN(C(=O)N3CCC(C(c4ccccc4)c4cccc(OCCF)c4)CC3)C[C@H]2N1 (single isomer, unassigned) [Example 66, (4aR,8aS)-6-(4-((S or R)-(3-(2-Fluoroethoxy)phenyl)(phenyl)methyl)piperidine-1-carbonyl)hexahydro-2H-pyrido[4,3-b][1,4]oxazin-3(4H)-one]"
5,9.52,"COc1cccc(C(c2ccc(F)cc2)C2CCN(C(=O)N3CC[C@@H]4OCC(=O)N[C@@H]4C3)CC2)c1 (single isomer, unassigned) [Example 63, (4aR,8aS)-6-(4-((R or S)-(4-Fluorophenyl)(3-methoxyphenyl)methyl)piperidine-1-carbonyl)hexahydro-2H-pyrido[4,3-b][1,4]oxazin-3(4H)-one]"
6,9.70,"COc1cccc(C(c2ccccc2)C2CCN(C(=O)N3CC[C@@H]4OCC(=O)N[C@@H]4C3)CC2)c1 (single isomer, unassigned) [Example 64, (4aR,8aS)-6-(4-((S or R)-(3-Methoxyphenyl)(phenyl)methyl)piperidine-1-carbonyl)hexahydro-2H-pyrido[4,3-b][1,4]oxazin-3(4H)-one]"
7,9.70,"COc1cccc(C(c2ccccc2)C2CCN(C(=O)N3CC[C@@H]4OCC(=O)N[C@@H]4C3)CC2)c1 (single isomer, unassigned) [Example 65, (4aR,8aS)-6-(4-((R or S)-(3-Methoxyphenyl)(phenyl)methyl)piperidine-1-carbonyl)hexahydro-2H-pyrido[4,3-b][1,4]oxazin-3(4H)-one]"
8,9.70,"O=C1CO[C@H]2CCN(C(=O)N3CCC(C(c4ccccc4)c4ccc(F)cc4)CC3)C[C@H]2N1 (single isomer, unassigned) [Example 68, (4aR,8aS)-6-(4-((S or R)-(4-Fluorophenyl)(phenyl)methyl)piperidine-1-carbonyl)hexahydro-2H-pyrido[4,3-b][1,4]oxazin-3(4H)-one]"
9,9.70,"COc1ccc(C(c2ccc(F)cc2)C2CCN(C(=O)N3CC[C@@H]4OCC(=O)N[C@@H]4C3)CC2)cc1 (single isomer, unassigned) [Example 71, (4aR,8aS)-6-(4-((S or R)-(4-Fluorophenyl)(4-methoxyphenyl)methyl)piperidine-1-carbonyl)hexahydro-2H-pyrido[4,3-b][1,4]oxazin-3(4H)-one]"
10,10.00,"Cc1ccc(C(c2ccc(F)cc2)C2CCN(C(=O)N3CC[C@@H]4OCC(=O)N[C@@H]4C3)CC2)cc1 (single isomer, unassigned) [Example 69, (4aR,8aS)-6-[4-[(S or R)-(4-Fluorophenyl)-(4-methylphenyl)methyl]piperidine-1-carbonyl]-4,4a,5,7,8,8a-hexahydropyrido[4,3-b][1,4]oxazin-3-one]"
